This data set can be described thus: on-resin side-chain-to-N-terminus lactamisation (lanthionine D-half alpha-COOH + N-terminal amine); PyAOP 5 eq, HOAt 5 eq, DIPEA 10 eq, after TBAF (Teoc/TMSE) and piperidine (Fmoc) removal; NovaSyn TGT low-loading resin. The settings on record: the molecule shown is the open-chain precursor, DMF, 60.0 °C.

In PMC6759747 one finds ring closure, overall yield data, which are given here for 7 compounds.

In the case of `*OC(=O)[C@H](CCCCNC(=O)OC(C)(C)C)NC(=O)[C@H](CS[C@@H](C)[C@@H](N)C(=O)O)NC(=O)CNC(=O)[C@@H]1CCCN1`, the ring closure, overall yield (13-membered ring, 5.1 h) came out at 37%. Regarding `*OC(=O)[C@H](C)NC(=O)[C@H](CSC[C@@H](N)C(=O)O)NC(=O)[C@H](CC(C)C)NC(=O)[C@H](COC(C)(C)C)NC(=O)[C@@H](N)CC(C)C`, the ring closure, overall yield (16-membered ring, 3.1 h) was 5%. In the case of `*OC(=O)[C@H](C)NC(=O)[C@H](CSC[C@@H](N)C(=O)O)NC(=O)[C@H](CC(C)C)NC(=O)[C@H](C)NC(=O)[C@@H](N)CC(C)C`, where the note is “16-membered ring, 3.1 h”, the ring closure, overall yield worked out at 3%.

`*OC(=O)[C@H](C)NC(=O)[C@H](CSC[C@@H](N)C(=O)O)NC(=O)[C@H](CC(C)C)NC(=O)[C@H](CSC(c1ccccc1)(c1ccccc1)c1ccccc1)NC(=O)[C@@H](N)[C@@H](C)CC`: the ring closure, overall yield (16-membered ring, 3.1 h) worked out at 11%. For `*OC(=O)[C@@H](NC(=O)[C@H](CSC[C@@H](N)C(=O)O)NC(=O)CNC(=O)[C@@H](N)CC(C)C)[C@@H](C)OC(C)(C)C`, for the setting “13-membered ring, 3.1 h”, the ring closure, overall yield came out at 34%. For `*OC(=O)[C@H](C)NC(=O)[C@H](CSC[C@@H](N)C(=O)O)NC(=O)[C@H](CC(C)C)NC(=O)[C@H](CSC(c1ccccc1)(c1ccccc1)c1ccccc1)NC(=O)[C@@H](N)CC(C)C`, the ring closure, overall yield (16-membered ring, 3.1 h) came out at 15%. As to `*OC(=O)[C@H](CCCCNC(=O)OC(C)(C)C)NC(=O)[C@H](CSC[C@@H](N)C(=O)O)NC(=O)CNC(=O)[C@@H]1CCCN1`, where the note is “13-membered ring, 3.1 h”, the ring closure, overall yield is 7%.
